Like-named read-outs stand apart in the source and are kept apart here.
Key:
partially purified ASA = partially purified ASA (Homo sapiens, UniProt P15289)
Procedure: FIG. 3. […] A preparation of partially purified human fibroblast ASA containing other lysosomal hydrolases was incubated for 1 hr at 4° C. in the presence of lead acetate as described in the text. ASA and other hydrolase enzymic activities were determined. The data are expressed relative to the control and the s.e.m at each concentration of lead is indicated.
(§1) The direct effect of lead on ASA activity was also studied. […] Human fibroblast ASA was enriched in a preparation of isolated lysosomal enzymes as described by Gorman and Poretz [J. Cell. Physiol. 131:158-164 (1987)]. Lead acetate in buffer was added to protein preparations containing approximately 2 units of ASA activity in a total volume of 2.0 ml and incubated at 4° C. A control lacking lead was also prepared in an identical fashion. Aliquots were removed at 30 min, 1 hr, 24 hr, and 48 hr and analyzed for ASA, β-galactosidase and β-hexosaminidaseactivities. Enzymic and protein analyses were performed in triplicate, and the complete experiment was repeated three times.

isolated lysosomes = details: cited from earlier work
ASA = details: daily i.p. 100 mg/kg body weight, cited from earlier work
arylsulfatase A (ASA) = arylsulfatase A (ASA) (Homo sapiens, UniProt P15289); details: fibroblasts
Chain of arylsulfatase A (ASA) (P15289 19-507): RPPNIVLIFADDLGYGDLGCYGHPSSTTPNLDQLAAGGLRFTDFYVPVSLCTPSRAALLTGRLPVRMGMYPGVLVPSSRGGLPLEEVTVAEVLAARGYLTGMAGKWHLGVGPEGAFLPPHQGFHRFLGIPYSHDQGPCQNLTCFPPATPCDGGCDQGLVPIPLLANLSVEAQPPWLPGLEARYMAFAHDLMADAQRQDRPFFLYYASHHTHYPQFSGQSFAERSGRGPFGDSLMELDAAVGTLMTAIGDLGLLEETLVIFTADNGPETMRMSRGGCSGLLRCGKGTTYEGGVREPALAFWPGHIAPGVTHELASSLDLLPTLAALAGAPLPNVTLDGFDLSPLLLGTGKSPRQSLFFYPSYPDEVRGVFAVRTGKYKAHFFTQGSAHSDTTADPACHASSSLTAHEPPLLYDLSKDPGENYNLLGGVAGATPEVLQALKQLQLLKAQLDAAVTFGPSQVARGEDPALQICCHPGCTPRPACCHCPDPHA
Procedure: FIG. 2. The effect of lead acetate on intracellular ASA enzymic activity in cultured human fibroblasts. Fibroblasts were grown in vitro as monolayer cultures in the absence or presence of different concentrations of lead acetate as described in the text. The cells were dissolved in buffer containing detergent and the enzymic activity of ASA and other lysosomal enzymes and protein concentration were determined. The data are expressed relative to the control and the s.e.m. at each concentration of lead is indicated.
The potential effect of lead on cellular levels of ASA was examined in an in vitro system employing human fibroblasts. […] Fibroblast cultures were derived from punch biopsies and maintained in glutamine/penicillin/streptomycin/fetal bovine serum supplemented EMEM or in the same supplemented medium containing 0.5. 5.0. or 20 μM lead acetate. These cultures were split every three cell cycles for a total of 6-12 cell divisions. Fibroblasts in logarithmic growth were washed with PBS and dissolved in 1 mL of PBS containing 0.1% Triton X-100. This suspension was centriftiged for 5 min at 12,000 ×g and the supernatant was employed for determination of ASA and arylsulfatase B (ASB) activities using p-nitrocatechol sulfate as described by Baum et al. [Clin. Chim. Acta 4:453-455 (1959)] and β-galactosidase [Poretz et al., supra]. Each assay was performed in triplicate, and the complete experiment was repeated three times on different occasions for evaluating the effect of lead on cellular levels of ASA.

β-hexosaminidase = details: every concentration of metal studied
Procedure: as §1

β-galactosidase = details: similar conditions as for ASA
Procedure: as §1

rat fibroblasts = details: lead nitrate in the growth medium; cited from earlier work

Chain of partially purified ASA (P15289 19-507): as above

CC(=O)[O-].CC(=O)[O-].[Pb+2] [lead acetate]
loss of ASA activity (partially purified ASA; 200 μM lead acetate, 4° C., p=0.045): 67% | time of maximum effect on ASA activity (partially purified ASA; 4° C., unchanged up to 48 hr): 1 h | effect on partially purified ASA (partially purified ASA; 100-200 μM lead acetate): precipitation of the enzyme and loss of enzymic activity | decrease in stability of the lysosome (isolated lysosomes): greater than 200 fold | facilitated calcium transport by isolated lysosomes (isolated lysosomes; lead as low as 300 μM, concentration dependent): markedly increased | reduction in ASA activity vs control animals (ASA; rat kidney): 20% | reduction in ASA activity vs control animals (ASA; rat liver): 55% | amount of ASA relative to control cells grown without lead (arylsulfatase A (ASA)): ≥ 65% | reduction of cellular ASA activity (arylsulfatase A (ASA)): 32-36% | reduction of cellular ASA specific activity (arylsulfatase A (ASA); 0.5 µM): 14% | decrease of ASA lysosomal enzyme activity vs cells in normal medium (arylsulfatase A (ASA); 20 µM): 32-36% | effect on β-hexosaminidase activity (β-hexosaminidase): closely paralleled that for ASA activity | effect on β-galactosidase activity (β-galactosidase): no reduction

O=[N+]([O-])[O-].O=[N+]([O-])[O-].[Pb+2] [lead nitrate]
lysosomal membrane stability (rat fibroblasts): reduction in lysosomal membrane stability

Source: US5935790A, “Method for detecting a predisposition to susceptibility to toxic effects of drugs and poisons” (Rutgers, The State University of New Jersey, priority 1997, dated 1999)
